Assay results reported in patent US6737383B1, “Herbicidal oxadiazolidines” (priority 1999, dated 2004).

How the values were obtained:
bamyardgrass = assay: Test B flood test barnyardgrass; assay type: in vivo, Echinochloa crus-galli
How it was run: (§1)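 Plants were grown to the 2-leaf stage before treatment with test chemical, then held in a greenhouse for twelve to sixteen days. Injury was visually rated against untreated controls on a 0–10 scale, where 0 is no effect and 10 is complete control.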

surinam grass = assay: Test B pre/postemergence surinam grass; assay type: in vivo, Brachiaria decumbens
How it was run: (§2)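 Response is a visual 0-to-10 score relative to untreated plants, where 0 means no effect and 10 means complete control, taken twelve to sixteen days after application. Treatments went onto soil at planting and onto foliage of 1- to 4-leaf plants, using a surfactant-containing non-phytotoxic solvent.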

wild oat = assay: Test B pre/postemergence wild oat; assay type: in vivo, Avena fatua
How it was run: as §2

corn = assay: Test B pre/postemergence corn; assay type: in vivo, Zea mays
How it was run: as §2

purple nutsedge = assay: Test B pre/postemergence purple nutsedge; assay type: in vivo, Cyperus rotundus
How it was run: as §2

crabgrass = assay: Test B pre/postemergence crabgrass; assay type: in vivo, Digitaria sanguinalis
How it was run: as §2

soybean = assay: Test B pre/postemergence soybean; assay type: in vivo, Glycine max
How it was run: as §2

rice = assay: Test B flood test rice; assay type: in vivo, Oryza sativa
How it was run: as §1

wheat = assay: Test B pre/postemergence wheat; assay type: in vivo, Triticum aestivum
How it was run: as §2

blackgrass = assay: Test B pre/postemergence blackgrass; assay type: in vivo, Alopecurus myosuroides
How it was run: as §2

cocklebur = assay: Test B pre/postemergence cocklebur; assay type: in vivo, Xanthium strumarium
How it was run: as §2

sugar beet = assay: Test B pre/postemergence sugar beet; assay type: in vivo, Beta vulgaris
How it was run: as §2

smallflower flatsedge = assay: Test B flood test smallflower flatsedge; assay type: in vivo, Cyperus difformis
How it was run: as §1

duck salad = assay: Test B flood test duck salad; assay type: in vivo, Heteranthera limosa
How it was run: as §1

bedstraw = assay: Test B pre/postemergence bedstraw; assay type: in vivo, Galium aparine
How it was run: as §2

velvetleaf = assay: Test B pre/postemergence velvetleaf; assay type: in vivo, Abutilon theophrasti
How it was run: as §2

rape = assay: Test B pre/postemergence rape; assay type: in vivo, Brassica napus
How it was run: as §2

[1] = Rate 62 g/ha, flood test species, Pre-emergence, visual evaluation after twelve to sixteen days
[2] = Rate 125 g/ha, under heading Pre-emergence, flood test species, visual evaluation after twelve to sixteen days
[3] = Rate 250 g/ha, Pre-emergence (flood test species), scale 0 to 10, 0 is no effect, 10 is complete control
[4] = Rate 500 g/ha, Pre-emergence section of Table B, 0 to 10 scale (0 no effect, 10 complete control)
[5] = Postemergence, Rate 62 g/ha, scale 0 to 10, 0 is no effect, 10 is complete control
[6] = Postemergence, Rate 125 g/ha, scale of 0 to 10 where 0 is no effect and 10 is complete control
[7] = Postemergence, Rate 250 g/ha, scale of 0 to 10, 0 is no effect, 10 is complete control
[8] = Postemergence, Rate 500 g/ha, scale of 0 to 10 where 0 is no effect and 10 is complete control
[9] = Preemergence, Rate 62 g/ha, scale 0 to 10 (0 no effect, 10 complete control)
[10] = Preemergence, Rate 125 g/ha, scale of 0 to 10 where 0 is no effect and 10 is complete control
[11] = Preemergence, Rate 250 g/ha, scale 0 to 10 (0 no effect, 10 complete control)
[12] = Preemergence, Rate 500 g/ha, scale of 0 to 10 where 0 is no effect and 10 is complete control

CC(=O)NCn1c(=O)on(C(=O)N(c2ccccc2)C(C)C)c1=O [Compound 621]
Plant response rating, Barnyardgrass (0 to 10 scale, 0 is no effect, 10 is complete control) (bamyardgrass; [1]): 0
Barnyardgrass plant response rating (0 to 10 scale, 0 is no effect, 10 is complete control) (bamyardgrass; [2]): 0
Barnyardgrass plant response rating (bamyardgrass; [3]): 0
Barnyardgrass plant response rating (bamyardgrass; [4]): 0
Plant response rating, B. signalgrass (surinam grass; [5]): 0
Plant response rating, B. signalgrass (surinam grass; [6]): 0
B. signalgrass plant response rating (surinam grass; [7]): 0
Plant response rating, B. signalgrass (surinam grass; [8]): 0
B. signalgrass plant response rating (surinam grass; [9]): 0
B. signalgrass plant response rating (surinam grass; [10]): 0
Plant response rating, B. signalgrass (surinam grass; [11]): 0
B. signalgrass plant response rating (surinam grass; [12]): 0
Plant response rating, Wild oats (wild oat; [5]): 0
Plant response rating, Wild oats (wild oat; [6]): 0
Wild oats plant response rating (wild oat; [7]): 0
Wild oats plant response rating (wild oat; [9]): 0
Wild oats plant response rating (wild oat; [10]): 0
Plant response rating, Wild oats (wild oat; [11]): 0
Plant response rating, Wild oats (wild oat; [12]): 0
Plant response rating, Corn (corn; [5]): 0
Plant response rating, Corn (corn; [6]): 0
Corn plant response rating (corn; [7]): 0
Plant response rating, Corn (corn; [8]): 0
Corn plant response rating (corn; [9]): 0
Corn plant response rating (corn; [10]): 0
Plant response rating, Corn (corn; [11]): 0
Plant response rating, Corn (corn; [12]): 0
Plant response rating, Nutsedge (purple nutsedge; [5]): 0
Plant response rating, Nutsedge (purple nutsedge; [6]): 0
Nutsedge plant response rating (purple nutsedge; [7]): 0
Plant response rating, Nutsedge (purple nutsedge; [8]): 0
Nutsedge plant response rating (purple nutsedge; [9]): 0
Nutsedge plant response rating (purple nutsedge; [10]): 0
Plant response rating, Nutsedge (purple nutsedge; [11]): 0
Plant response rating, Nutsedge (purple nutsedge; [12]): 0
Plant response rating, Crabgrass (crabgrass; [5]): 0
Plant response rating, Crabgrass (crabgrass; [6]): 3
Crabgrass plant response rating (crabgrass; [9]): 5
Crabgrass plant response rating (crabgrass; [10]): 6
Plant response rating, Crabgrass (crabgrass; [11]): 7
Plant response rating, Crabgrass (crabgrass; [12]): 8
Plant response rating, Soybean (soybean; [5]): 1
Plant response rating, Soybean (soybean; [6]): 5
Soybean plant response rating (soybean; [7]): 5
Soybean plant response rating (soybean; [9]): 0
Soybean plant response rating (soybean; [10]): 0
Plant response rating, Soybean (soybean; [11]): 0
Plant response rating, Soybean (soybean; [12]): 3
Plant response rating, Rice (0 to 10 scale, 0 is no effect, 10 is complete control) (rice; [1]): 0
Rice plant response rating (0 to 10 scale, 0 is no effect, 10 is complete control) (rice; [2]): 0
Rice plant response rating (rice; [3]): 0
Rice plant response rating (rice; [4]): 0
Plant response rating, Wheat (wheat; [5]): 0
Plant response rating, Wheat (wheat; [6]): 0
Wheat plant response rating (wheat; [7]): 0
Wheat plant response rating (wheat; [9]): 0
Wheat plant response rating (wheat; [10]): 0
Plant response rating, Wheat (wheat; [11]): 0
Plant response rating, Wheat (wheat; [12]): 0
Plant response rating, Blackgrass (blackgrass; [5]): 0
Plant response rating, Blackgrass (blackgrass; [6]): 0
Blackgrass plant response rating (blackgrass; [7]): 0
Plant response rating, Blackgrass (blackgrass; [8]): 0
Blackgrass plant response rating (blackgrass; [9]): 0
Blackgrass plant response rating (blackgrass; [10]): 0
Plant response rating, Blackgrass (blackgrass; [11]): 0
Blackgrass plant response rating (blackgrass; [12]): 0
Plant response rating, Cocklebur (cocklebur; [5]): 0
Plant response rating, Cocklebur (cocklebur; [6]): 0
Cocklebur plant response rating (cocklebur; [7]): 0
Plant response rating, Cocklebur (cocklebur; [8]): 0
Cocklebur plant response rating (cocklebur; [9]): 0
Cocklebur plant response rating (cocklebur; [10]): 0
Plant response rating, Cocklebur (cocklebur; [11]): 0
Plant response rating, Cocklebur (cocklebur; [12]): 0
Plant response rating, Sugarbeets (sugar beet; [5]): 0
Plant response rating, Sugarbeets (sugar beet; [6]): 0
Sugarbeets plant response rating (sugar beet; [7]): 0
Sugarbeets plant response rating (sugar beet; [9]): 0
Sugarbeets plant response rating (sugar beet; [10]): 0
Plant response rating, Sugarbeets (sugar beet; [11]): 0
Plant response rating, Sugarbeets (sugar beet; [12]): 0
Plant response rating, S. Flatsedge (0 to 10 scale, 0 is no effect, 10 is complete control) (smallflower flatsedge; [1]): 0
S. Flatsedge plant response rating (0 to 10 scale, 0 is no effect, 10 is complete control) (smallflower flatsedge; [2]): 0
S. Flatsedge plant response rating (smallflower flatsedge; [3]): 0
S. Flatsedge plant response rating (smallflower flatsedge; [4]): 0
Plant response rating, Ducksalad (0 to 10 scale, 0 is no effect, 10 is complete control) (duck salad; [1]): 0
Ducksalad plant response rating (0 to 10 scale, 0 is no effect, 10 is complete control) (duck salad; [2]): 0
Ducksalad plant response rating (duck salad; [3]): 0
Ducksalad plant response rating (duck salad; [4]): 0
Plant response rating, Bedstraw (bedstraw; [6]): 0
Bedstraw plant response rating (bedstraw; [9]): 0
Bedstraw plant response rating (bedstraw; [10]): 0
Plant response rating, Bedstraw (bedstraw; [11]): 0
Bedstraw plant response rating (bedstraw; [12]): 0
Plant response rating, Velvetleaf (velvetleaf; [5]): 0
Plant response rating, Velvetleaf (velvetleaf; [6]): 0
Velvetleaf plant response rating (velvetleaf; [7]): 0
Velvetleaf plant response rating (velvetleaf; [9]): 0
Velvetleaf plant response rating (velvetleaf; [10]): 0
Plant response rating, Velvetleaf (velvetleaf; [11]): 0
Plant response rating, Velvetleaf (velvetleaf; [12]): 0
Plant response rating, Rape (rape; [5]): 0
Plant response rating, Rape (rape; [6]): 0
Rape plant response rating (rape; [7]): 0
Plant response rating, Rape (rape; [8]): 0
Rape plant response rating (rape; [9]): 0
Rape plant response rating (rape; [10]): 0
Plant response rating, Rape (rape; [11]): 0
Plant response rating, Rape (rape; [12]): 0
